Measured values as given in patent US9884854B2, “N-[(pyrimidinylamino)propanyl]-and N[(pyrazinylamino)proppanyl]arylcarboxamides” (Boehringer Ingelheim International GmbH, priority 2016, dated 2018).

How the values were obtained:
human MDR1 P-gp = test: Assay D: efflux in MDCK cells transfected with the human MDR1 gene; assay type: in vitro ADME, canine; settings: dog; MDCK-MDR1 monolayers, pH 7.4, 37° C.; read-out: MDCK efflux ratio (BA/AB)
Description: The MDCK assay provides information on the potential of a compound to pass the blood brain barrier. Permeability measurements across polarized, confluent MDCK-MDR1 cell monolayers grown on permeable filter supports are used as an in vitro absorption model: apparent permeability coefficients (PE) of the compounds across the MDCK-MDR1 cell monolayers are measured (pH 7.4, 37° C.) in apical-to-basal (AB) and basal-to-apical (BA) transport direction. The AB permeability (PEAB) represents drug absorption from the blood into the brain and the BA permeability (PEBA) drug efflux from the brain back into the blood via both, passive permeability as well as active transport mechanisms mediated by efflux and uptake transporters that are expressed on the MDCK-MDR1 cells, predominantly by the overexpressed human MDR1 P-gp. Identical or similar permeabilities in both transport directions indicate passive permeation, vectorial permeability points to additional active transport mechanisms. Higher PEBA than PEAB (PEBA/PEAB>5) indicates the involvement of active efflux mediated by MDR1 P-gp, which might compromises the goal to achieve sufficient brain exposure. Therefore this assay provides valuable support for selection of compounds applicable for further in vivo testing. High permeability not limited by efflux at the blood brain barrier is a favourable characteristic for compounds that are to be used for drugs acting primarily in the CNS
D. Assessment of Efflux in Madin-Darby Canine Kidney (MDCK) Cells Transfected with the Human MDR1 Gene
Apparent permeability coefficients (PE) of the compounds across the MDCK-MDR1 cell monolayers are measured (pH 7.4, 37° C.) in apical-to-basal (AB) and basal-to-apical (BA) transport direction. AB permeability (PEAB) represents drug absorption from the blood into the brain and BA permeability (PEBA) drug efflux from the brain back into the blood via both passive permeability as well as active transport mechanisms mediated by efflux and uptake transporters that are expressed on the MDCK-MDR1 cells, predominantly by the overexpressed human MDR1 P-gp. The compounds are assigned to permeability/absorption classes by comparison of the AB permeabilities with the AB permeabilities of reference compounds with known in vitro permeability and oral absorption in the human. Identical or similar permeabilities in both transport directions indicate passive permeation, vectorial permeability points to additional active transport mechanisms. Higher PEBA than PEAB indicates the involvement of active efflux mediated by MDR1 P-gp. Active transport is concentration-dependently saturable.
MDCK-MDR1 cells (1-2×10e5 cells/1 cm2 area) are seeded on filter inserts (Costar transwell polycarbonate or PET filters, 0.4 μm pore size) and cultured (DMEM) for 7 days. Subsequently, the MDR1 expression is boosted by culturing the cells with 5 mM sodium butyrate in full medium for 2 days. Compounds are dissolved in appropriate solvent (like DMSO, 1-20 mM stock solutions). Stock solutions are diluted with HTP-4 buffer (128.13 mM NaCl, 5.36 mM KCl, 1 mM MgSO4, 1.8 mM CaCl2, 4.17 mM NaHCO3, 1.19 mM Na2HPO4×7H2O, 0.41 mM NaH2PO4×H2O, 15 mM HEPES, 20 mM glucose, 0.25% BSA, pH 7.4) to prepare the transport solutions (0.1-300 μM compound, final DMSO<=0.5%). The transport solution (TL) is applied to the apical or basolateral donor side for measuring A-B or B-A permeability (3 filter replicates), respectively. The receiver side contains the same buffer as the donor side. Samples are collected at the start and end of experiment from the donor and at various time intervals for up to 2 hours also from the receiver side for concentration measurement by HPLC-MS/MS or scintillation counting. Sampled receiver volumes are replaced with fresh receiver solution.

[1] = Assay C: metabolic stability in human liver microsomes (Human MST); assay type: in vitro ADME; settings: pooled human liver microsomes, pH 7.6, 1 μM compound, 37° C., read-out: Human MST t1/2
From the text: Stability in human liver microsomes refers to the susceptibility of compounds to biotransformation in the context of selecting and/or designing drugs with favorable pharmacokinetic properties. The primary site of metabolism for many drugs is the liver. Human liver microsomes contain the cytochrome P450s (CYPs), and thus represent a model system for studying drug metabolization in vitro. Enhanced stability in human liver microsomes is associated with several advantages, including increased bioavailability and longer half-life, which can enable lower and less frequent dosing of patients. Thus, enhanced stability in human liver microsomes is a favorable characteristic for compounds that are to be used for drugs.
C. Assessment of Metabolic Stability in Human Liver Microsomes (Human MST)
The metabolic stability of the compounds according to the invention may be investigated as follows:
The metabolic degradation of the test compound is assayed at 37° C. with pooled human liver microsomes. The final incubation volume of 100 μL per time point contains TRIS buffer pH 7.6 at room temperature (0.1 M), MgCl2 (5 mM), microsomal protein (1 mg/mL) and the test compound at a final concentration of 1 μM. Following a short pre-incubation period at 37° C., the reactions are initiated by addition of beta-nicotinamide adenine dinucleotide phosphate, reduced form (NADPH, 1 mM), and terminated by transferring an aliquot into solvent after different time points. After centrifugation (10000 g, 5 min), an aliquot of the supernatant is assayed by LC-MS/MS for the amount of parent compound. The half-life (t1/2) is determined by the slope of the semi-logarithmic plot of the concentration-time profile.

| Structure (SMILES) | efflux ratio (human MDR1 P-gp) | half-life at 1 μM [1] [h] |
| --- | --- | --- |
| CCN(C(=O)c1ccccc1-n1nccn1)[C@@H](C)CNc1ncc(C(F)(F)F)cn1 [Example 1] | < 3 | 2 |
| CCN(C(=O)c1cnc(C)nc1-c1ccccc1)[C@@H](C)CNc1ncc(C(F)(F)F)cn1 [Example 17] | < 3 | > 2 |
| CCN(C(=O)c1cccc(F)c1-n1nccn1)[C@@H](C)CNc1ncc(C(F)(F)F)cn1 [Example 18] | < 3 | > 2 |
| CCN(C(=O)c1nc(C)ccc1-n1nccn1)[C@@H](C)CNc1ncc(C(F)(F)F)cn1 [Example 9] | < 3 | 1.67 |
